Source: article PMC8362065, “Easily Available, Amphiphilic Diiron Cyclopentadienyl Complexes Exhibit in Vitro Anticancer Activity in 2D and 3D Human Cancer Cells through Redox Modulation Triggered by CO Release” (Chemistry (Weinheim an Der Bergstrasse, Germany), 2021)

Tests used:
[1] = Octanol/water partition coefficient, shake-flask method and UV/Vis
Description: Octanol/water partition coefficients (log Pow ). Partition coefficients (P ow; IUPAC: K D partition constant[53]), defined as P ow=corg/caq, where corg and caq are molar concentrations of the selected compound in the organic and aqueous phase, respectively, were determined by the shake‐flask method and UV/Vis measurements.[[16a], [54]] Deionized water and octan‐1‐ol were vigorously stirred for 24 h, to enable saturation of both phases, then separated by centrifugation. A stock solution of the selected Fe compound (ca. 2 mg) was prepared by first adding acetone (50 μL, to help solubilization), followed by water‐saturated octanol (2.5 mL). The solution was diluted with water‐saturated octanol (ca. 1 : 3 v/v ratio, cFe2 ≈10^−4 M, so that 1.5≤A≤2.0 at λ max) and its UV/Vis spectrum was recorded ( A0/org ). An aliquot of the solution (V org=1.2 mL) was transferred into a test tube and octanol‐saturated water (V org=V aq=1.2 mL) was added. The mixture was vigorously stirred for 30 min at 21 °C then centrifuged (RCF 805, 5 min; Hettich EBA 8G). The UV/Vis spectrum of the organic phase was recorded ( Af/org ) and the partition coefficient was calculated as P ow= Af/org /( A0/org g− Af/org ) where A0/org and Af/org are the absorbance in the organic phase before and after partition with the aqueous phase, respectively.[53] For [2B]BF4, [2C]Cl and [3F]CF3SO3 an inverse procedure was followed, starting from a solution of the compound in octanol‐saturated water. The partition coefficient was calculated as P ow=( A0/aq − Af/aq )/ Af/aq where A0/aq and Af/aq are the absorbance in the aqueous phase before and after partition with the organic phase, respectively.

[2] = tested on: Human breast (MCF‐7) carcinoma cell line; test: MTT assay, 2D cell culture; type: cell-based; settings: 72 h
Description: (§1) Compounds [2B]BF4, [2C]CF3SO3, [2D]CF3SO3 and [3F]CF3SO3 were dissolved in water while the other compounds were dissolved in the minimum DMSO amount prior to cell culture testing. A calculated amount of the stock drug DMSO solution was added to the cell culture media to reach a final maximum DMSO concentration of 0.5 %, which had no effects on cell viability.
(§2) Cell cultures. Human colon (HCT‐15), pancreatic (PSN‐1) and breast (MCF‐7) carcinoma cell lines along with human melanoma cells (A375) were obtained from American Type Culture Collection (ATCC, Rockville, MD). Embryonic kidney HEK293 cells were obtained from the European Collection of Cell Cultures (ECACC, Salisbury, UK). Human ovarian 2008 cancer cells were kindly provided by Prof. G. Marverti (Dept. of Biomedical Science of Modena University, Italy). MCF‐7 ADR cells were kindly provided by Prof. N. Colabufo (Dept. Pharmacy, University of Bari, Italy). Cell lines were maintained in the logarithmic phase at 37 °C in a 5 % CO2 atmosphere using the following culture media containing 10 % fetal calf serum (Euroclone, Milan, Italy), antibiotics (50 units/mL penicillin and 50 μg/mL streptomycin) and 2 mM L‐glutamine: i) RPMI‐1640 medium (Euroclone, Milan, Italy) for PSN‐1, 2008, HCT‐15, MCF‐7 and MCF‐7 ADR cells; ii) DMEM for A375 and HEK293 cells.
(§3) MTT assay. The growth inhibitory effect towards tumour cells was evaluated by means of MTT assay as previously described.[57] Briefly, 3–8×10^3 cells/well, dependent upon the growth characteristics of the cell line, were seeded in 96‐well microplates in growth medium (100 μL). After 24 h, the medium was removed and replaced with a fresh one containing the compound to be studied at the appropriate concentration. Triplicate cultures were established for each treatment. After 24 or 72 h, each well was treated with 10 μL of a 5 mg/mL MTT saline solution, and following 5 h of incubation, 100 μL of a sodium dodecyl sulfate (SDS) solution in HCl 0.01 M were added. After an overnight incubation, cell growth inhibition was detected by measuring the absorbance of each well at 570 nm using a Bio‐Rad 680 microplate reader. Mean absorbance for each drug dose was expressed as a percentage of the control untreated well absorbance and plotted against drug concentration. IC50 values, the drug concentrations that reduce the mean absorbance at 570 nm to 50 % of those in the untreated control wells, were calculated by the four‐parameter logistic (4‐PL) model. Evaluation was based on means from at least four independent experiments.

[3] = tested on: human melanoma cells (A375); test: MTT assay, 2D cell culture; type: cell-based; settings: 72 h
Description: as §1, §2, §3

[4] = tested on: Human pancreatic (PSN‐1) carcinoma cell line; test: MTT assay, 2D cell culture; type: cell-based; settings: PSN‐1 cells, 72 h, read-out: IC50 (μM)±SD
Description: as §1, §2, §3

[5] = tested on: Human colon (HCT‐15) carcinoma cell line; test: MTT assay, 2D cell culture; type: cell-based; settings: HCT‐15 cells, 72 h
Description: as §1, §2, §3

[6] = tested on: Human ovarian 2008 cancer cells; test: MTT assay, 2D cell culture; type: cell-based; settings: 2008 cells, 72 h
Description: as §1, §2, §3

[7] = tested on: 3D cell spheroids of human ovarian (2008) cancer cells; test: Acid phosphatase (APH) assay, 3D spheroid culture; type: cell-based; settings: 2008 cell line
[8] = tested on: Embryonic kidney HEK293 cells; test: MTT assay, noncancerous cell line; type: cell-based, human; settings: 72 h
Description: As one of the main drawbacks of chemotherapeutics is the toxic effect toward noncancerous cells, we measured the cytotoxicity of tested complexes against a noncancerous cell line (HEK293) and calculated the selectivity index (SI, defined as the ratio between the IC50 value in noncancerous cells and the corresponding average IC50 value related to cancer cells; Table 5).
as §1, §2, §3

[9] = tested on: 3D cell spheroids of human ovarian (2008) cancer cells; test: Acid phosphatase (APH) assay, 3D spheroid culture; type: cell-based; settings: 2008 spheroids, 72 h, APH test
From the text: (§4) The remarkable cell‐killing effect observed in 2D cultured cells prompted us to evaluate the in vitro antitumor activity of the complexes on 3D cell cultures. Differently from 2D monolayer culture, 3D spheroid cell culture systems comprise cancer cells in various cell growth stages. Consequently, the multicellular cancer spheroid model is recognized to better reflect the tumour mass in vivo regarding drug permeation, cell interactions, gene expression, hypoxia and nutrient gradients with respect to monolayer cell cultures, making 3D models more predictive than conventional 2D monolayer cultures in screening antitumor drugs.[38] Table 6 summarizes the IC50 values obtained after treatment of 3D cell spheroids of human ovarian (2008) and pancreatic (PSN‐1) cancer cells with the diiron complexes and cisplatin.
(§5) Spheroid cultures. Spheroid cultures were obtained by seeding 2.5×10^3 cells/well in round bottom non‐tissue culture treated 96 well‐plate (Greiner Bio‐one, Kremsmünster, Austria) in phenol red free RPMI‐1640 medium (Sigma Chemical Co.), containing 10 % FCS and supplemented with 20 % methyl cellulose stock solution.
(§6) Acid phosphatase (APH) assay. An APH modified assay was used for determining cell viability in 3D spheroids, as previously described.[58] IC50 values were calculated with a four‐parameter logistic (4‐PL) model. All the values are the means ± SD of not less than four independent experiments.

[10] = tested on: 3D cell spheroids of human pancreatic (PSN‐1) cancer cells; test: Acid phosphatase (APH) assay, 3D spheroid culture; type: cell-based; settings: PSN‐1 spheroids, 72 h, APH test
From the text: as §4, §5, §6

MCF‐7 ADR cells = test: MTT assay, multidrug-resistant cancer cell model overexpressing P-gp; type: cell-based, human
Description: The antiproliferative activity was also investigated in a multidrug‐resistant cancer cell model overexpressing P‐gp (MCF‐7 ADR cells).
as §1, §2, §3

[11] = Solubility pattern of the isolated compound (qualitative); type: physicochemical; settings: isolated solid
[12] = Stability in D2O, D2O/CD3OD and DMSO-d6/D2O at 37 °C by 1H NMR; type: physicochemical; settings: D2O
Description: A detailed study on the behaviour of a selection of the diiron complexes in aqueous media was undertaken. Experimental procedures are provided in the Experimental Section and in the Supporting Information, with data collected in Tables 3, S3 and S4. […] The octanol/water partition coefficients (log P ow) were measured by a UV/Vis method and fall in between 0 and −1, reflecting an amphiphilic or slightly hydrophilic character. […] Conversely, those complexes with aromatic groups (i. e., 1H‐indol‐6‐yl, 2‐naphthyl and bis‐benzyl in [2A]^+, [3G]^+, [4G]^+ and [5H]^+) are less soluble in water and display increased affinity for n‐octanol (log P ow≈0). The diiron compounds are inert in aqueous solution at room temperature, and undergo a slow degradation at 37 °C. Under such conditions, a variable amount (50 to 86 %; Table S3) of the starting material was detected by ^1H NMR in D2O or D2O/CD3OD mixtures after 72 h.[33] During this time, the precipitation of a brown solid was observed, which in one case (from a [2C]CF3SO3 solution) was separated and identified as γ‐Fe2O3 by Raman analysis. In addition, headspace GC analyses performed on 5 % MeOH aqueous solutions of the compounds maintained at 37 °C allowed the identification and quantitation of the carbon monoxide released over a 48 h period (Table S4). These facts indicate that the thermal degradation process in aqueous solution leads to the progressive disassembly of the organometallic scaffold.[16] The presumed, controlled release of the iron centres (converted to iron oxide, see above) and carbon monoxide are two aspects that deserve attention with reference to the biological activity: note that the decay of ferrocene drug candidates into Fe^II ions was previously associated to their cytotoxicity,[34] while the activity of various iron carbonyl complexes was correlated to CO dissociation in the physiological media.[35]
(§7) Stability in water (D2O) and cell culture medium. The procedures are described in the Supporting Information, and data are collected in Table S3.
(§8) Table S3. Stability of diiron complexes in D2O, D2O/CD3OD, DMSO-d6/D2O and cell culture medium (DMEM-
(§9) d/CD3OD) solution at 37 °C calculated by 1H NMR (Me2SO2 internal standard).
(§10) % starting material (72 h) % starting material
(§11) Compound D O D O/CD OD DMSO-d /D O DMEM-d
(§12) [a] X = I for the stability in D 2O, X = CF3SO3 for the stability in cell culture medium. [b] Stability in D 2O and […]

[13] = Stability in cell culture medium (DMEM) at 37 °C by 1H NMR; type: physicochemical; settings: DMEM-d (6.6 % CD3OD)
Description: Next, the stability of the diiron compounds in a cell culture medium (DMEM) solution at 37 °C, over a shorter time range (24 h), was assessed by ^1H NMR.
as §7, §8, §9, §10, §11, §12

Compound: O=C1C=CC(=O)c2ccccc21 [Naphthoquinone, reference compound]
- logP at 30 min [1]: 1.8 ± 0.2

Compound: N.N.[Cl][Pt][Cl] [cisplatin, reference compound]
- IC50 ([2]; MCF‐7 cells): 8.8 ± 0.2 µM
- IC50 [3]: 2.1 ± 0.3 µM
- IC50 [4]: 12.1 ± 2.9 µM
- IC50 [5]: 16.5 ± 2.2 µM
- IC50 [6]: 2.2 ± 1.4 µM
- IC50 ratio related to 3D and 2D experiments [7]: 26
- IC50 ([8]; HEK293 noncancerous cells, MTT): 18.1 ± 3.6 µM
- SI (selectivity index) ([8]; IC50 in noncancerous HEK293 cells / average IC50 in cancer cells): 2.2
- IC50 [9]: 57.6 ± 3.6 µM
- IC50 [10]: 61.7 ± 12.1 µM

Compound: COc1cccc2c1C(=O)c1c(O)c3c(c(O)c1C2=O)C[C@@](O)(C(=O)CO)C[C@@H]3O[C@H]1C[C@H](N)[C@H](O)[C@H](C)O1 [doxorubicin, reference compound]
- IC50 ([2]; Homo sapiens, MCF7, MCF‐7 cells): 0.2 ± 0.03 µM
- IC50 (MCF‐7 ADR cells; Homo sapiens, NCI/ADR-RES, MCF‐7 ADR cells, 72 h, MTT): 7.8 ± 2.2 µM
- RF=IC50 (resistant cells)/IC50 (wild‐type cells) (MCF‐7 ADR cells; MCF‐7 ADR vs MCF‐7, 72 h): 39

Compound: [Fe2Cp2(CO)2(μ‐CO){μ‐CNMe(2‐naphthyl)}]I [[3G]I]
- Solubility in water (qualitative) [11]: sparingly soluble

Compound: [Fe2Cp2(CO)2(μ‐CO){μ‐CNMe(C6H11)}]X [[2C]Cl]
- % starting material (72 h) [12]: 79%
- % starting material (24 h) [13]: 88%
- Log P ow ([1]; octanol/water, 21 °C): −1.1±0.08

Compound: [Fe2Cp2(CO)2(μ‐CO){μ‐CNMe(CH2CHCH2)}]X [[3F]I]
- Solubility in water (qualitative) [11]: poorly soluble

Compound: [Fe2Cp2(CO)2(μ‐CO){μ‐CNMe(CH2CHCH2)}]X [[3F]X]
- % starting material (72 h) [12]: 60%
- % starting material (24 h) [13]: 84%

Compound: [Fe2Cp2(CO)2(μ‐CO){μ‐CNMe(CH2PO3Et2)}]X [[2B]CF3SO3]
- IC50±SD (μM) [9]: ineffective
- IC50±SD (μM) [10]: ineffective
